We go through 28 molecules from US8859574B2 (IRM LLC, priority 2008, dated 2014).

Structures are written as SMILES.

T1 sequence (P08069 999-1274 limits assumed): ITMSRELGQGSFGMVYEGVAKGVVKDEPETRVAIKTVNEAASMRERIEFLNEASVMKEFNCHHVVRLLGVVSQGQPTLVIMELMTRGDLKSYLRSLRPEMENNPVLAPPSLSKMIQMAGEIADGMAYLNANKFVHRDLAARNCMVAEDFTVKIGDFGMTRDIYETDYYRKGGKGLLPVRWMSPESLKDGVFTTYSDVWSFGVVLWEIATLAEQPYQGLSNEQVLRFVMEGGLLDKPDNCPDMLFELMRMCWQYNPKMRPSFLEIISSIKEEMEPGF

The experiment addresses T1, IGF-1R Ba/F3 (Homo sapiens, UniProt P08069).
T1 construct: fused on or other part: TEL- (or BCR-) IGF-1R in Ba/F3: the kinase part holds the site
The experiment can be described thus: Ba/F3 Cell Viability Inhibition Assay (IGF-1R Ba/F3). It is filed as cell-based, murine. As to conditions: Tel-TK transformed Ba/F3 cells, 48 hours, Britelite luminescence. The procedure, abridged:
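A 48 h compound treatment at 37 °C (3750 cells/well) was followed by Britelite luminescence to measure viability. Cells were Ba/F3 pro-B cells, IL-3-independent via TEL-fused IGF-1R kinase transduction. A logistic fit gave IC50 as 50% viability relative to DMSO control.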
On to `Cc1cc(Nc2nc(Nc3cc(Cl)c(C4CCN(C(=O)CN(C)C)CC4)cc3C)ncc2Cl)n[nH]1` [Compound 74, 1-(4-(2-chloro-4-(5-chloro-4-(5-methyl-1H-pyrazol-3-ylamino)pyrimidin-2-ylamino)-5-methylphenyl)piperidin-1-yl)-2-(dimethylamino)ethanone], for which the IC50 worked out at 7 nM.
Turning to `Cc1cc(Nc2nc(Nc3cc(C(F)(F)F)c(C4CCNCC4)cc3C)ncc2Cl)n[nH]1` [Compound 254, 5-chloro-N4-(5-methyl-1H-pyrazol-3-yl)-N2-(2-methyl-4-(piperidin-4-yl)-5-(trifluoromethyl)phenyl)pyrimidine-2,4-diamine], the IC50 amounted to 70 nM.
To `Cc1cc(Nc2nc(Nc3cc(C)c(C4CCN(C[C@H](O)C(F)(F)F)CC4)cc3C)ncc2C)n[nH]1` [Compound 179, (S)-3-(4-(2,5-dimethyl-4-(5-methyl-4-(5-methyl-1H-pyrazol-3-ylamino)pyrimidin-2-ylamino)phenyl)piperidin-1-yl)-1,1,1-trifluoropropan-2-ol] belongs 120 nM.
To `Cc1cc(Nc2nc(Nc3cc(C4CCN(CC(O)C(F)(F)F)CC4)c(F)cc3C)ncc2Cl)n[nH]1` (stereo not shown) [Compound 31, 3-(4-(5-(5-chloro-4-(5-methyl-1H-pyrazol-3-ylamino)pyrimidin-2-ylamino)-2-fluoro-4-methylphenyl)piperidin-1-yl)-1,1,1-trifluoropropan-2-ol] belongs 6470 nM; to `CCN1CCC(c2cc(C)c(Nc3ncc(Cl)c(Nc4cc(C)[nH]n4)n3)cc2C)CC1` [Compound 211, 5-chloro-N2-(4-(1-ethylpiperidin-4-yl)-2,5-dimethylphenyl)-N4-(5-methyl-1H-pyrazol-3-yl)pyrimidine-2,4-diamine], 9 nM.
To `Cc1cc(Nc2nc(Nc3cc(C)c(C4CCN(C(=O)c5ocnc5C)CC4)cc3F)ncc2Cl)n[nH]1` [Compound 136, (4-(4-(5-chloro-4-(5-methyl-1H-pyrazol-3-ylamino)pyrimidin-2-ylamino)-5-fluoro-2-methylphenyl)piperidin-1-yl)(4-methyloxazol-5-yl)methanone] belongs 35 nM; to `Cc1cc(Nc2nc(Nc3cc(C)c(C4CCN(S(=O)(=O)C5CC5)CC4)cc3F)ncc2Cl)n[nH]1` [Compound 64, 5-chloro-N2-(4-(1-(cyclopropylsulfonyl)piperidin-4-yl)-2-fluoro-5-methylphenyl)-N4-(5-methyl-1H-pyrazol-3-yl)pyrimidine-2,4-diamine], 59 nM; to `Cc1cc(Nc2nc(Nc3cc(C)c(C4CCN(C(=O)OC(C)C)CC4)cc3F)ncc2Cl)n[nH]1` [Compound 68, isopropyl 4-(4-(5-chloro-4-(5-methyl-1H-pyrazol-3-ylamino)pyrimidin-2-ylamino)-5-fluoro-2-methylphenyl)piperidine-1-carboxylate], 80 nM.
In turn, `Cc1cc(Nc2nc(Nc3cc(C(F)(F)F)c(C4CCNCC4)cc3F)ncc2Cl)n[nH]1` [Compound 253, 5-chloro-N2-(2-fluoro-4-(piperidin-4-yl)-5-(trifluoromethyl)phenyl)-N4-(5-methyl-1H-pyrazol-3-yl)pyrimidine-2,4-diamine] yielded an IC50 of 75 nM.
To `Cc1cc(Nc2nc(Nc3cc(C)c(C4CCCN(C(=O)CN(C)C)C4)cc3C)ncc2Cl)n[nH]1` (stereo not shown) [Compound 180, 1-(3-(4-(5-chloro-4-(5-methyl-1H-pyrazol-3-ylamino)pyrimidin-2-ylamino)-2,5-dimethylphenyl)piperidin-1-yl)-2-(dimethylamino)ethanone] belongs 25 nM; to `Cc1cc(Nc2nc(Nc3cc(C)c(C4CC[N+]([O-])(C5CCOCC5)CC4)cc3F)ncc2Cl)n[nH]1` (stereo not shown) [Compound 294, 4-(4-(5-chloro-4-(5-methyl-1H-pyrazol-3-ylamino)pyrimidin-2-ylamino)-5-fluoro-2-methylphenyl)-1-(tetrahydro-2H-pyran-4-yl)piperidine 1-oxide], 64 nM; to `Cc1cc(Nc2nc(Nc3cc(C)c(C4CCN(CCS(=O)(=O)N5CCC5)CC4)cc3F)ncc2Cl)n[nH]1` [Compound 61, N2-(4-(1-(2-(azetidin-1-ylsulfonyl)ethyl)piperidin-4-yl)-2-fluoro-5-methylphenyl)-5-chloro-N4-(5-methyl-1H-pyrazol-3-yl)pyrimidine-2,4-diamine], 56 nM.
`Cc1cc(Nc2nc(Nc3cc(Cl)c(C4CCN(C(=O)CN(C)C)CC4)cc3Cl)ncc2Cl)n[nH]1` [Compound 77, 1-(4-(2,5-dichloro-4-(5-chloro-4-(5-methyl-1H-pyrazol-3-ylamino)pyrimidin-2-ylamino)phenyl)piperidin-1-yl)-2-(dimethylamino)ethanone] registered an IC50 of 7 nM.
For `Cc1cc(Nc2nc(Nc3cc(C)c(C4CCN(C5CCN(C(=O)OC(C)(C)C)C5)CC4)cc3F)ncc2Cl)n[nH]1` (stereo not shown) [Compound 291, tert-butyl 3-(4-(4-(5-chloro-4-(5-methyl-1H-pyrazol-3-ylamino)pyrimidin-2-ylamino)-5-fluoro-2-methylphenyl)piperidin-1-yl)pyrrolidine-1-carboxylate], the IC50 worked out at 67 nM.
To `Cc1cc(Nc2ncc(Cl)c(NC3CCCCNC3=O)n2)c(F)cc1C1CCN(C)CC1` (stereo not shown) [Compound 9, 3-(5-chloro-2-(2-fluoro-5-methyl-4-(1-methylpiperidin-4-yl)phenylamino)pyrimidin-4-ylamino)azepan-2-one] belongs 87 nM; to `Cc1cc(Nc2nc(Nc3cc(C)c(C4CCCN(C(=O)C5(N)CC5)C4)cc3C)ncc2Cl)n[nH]1` (stereo not shown) [Compound 187, (1-aminocyclopropyl)(3-(4-(5-chloro-4-(5-methyl-1H-pyrazol-3-ylamino)pyrimidin-2-ylamino)-2,5-dimethylphenyl)piperidin-1-yl)methanone], 95 nM.
Then `Cc1cc(Nc2nc(Nc3cc(C)c(C4CCNCC4)cc3C)ncc2C(F)(F)F)n[nH]1` [Compound 257, N^2-(2,5-dimethyl-4-(piperidin-4-yl)phenyl)-N^4-(5-methyl-1H-pyrazol-3-yl)-5-(trifluoromethyl)pyrimidine-2,4-diamine], with 64 nM.
To `Cc1cc(Nc2nc(Nc3cc(C)c(C4CCN(C)CC4)cc3OC(C)C)ncc2Cl)n[nH]1` [Compound 3, 5-chloro-N2-(2-isopropoxy-5-methyl-4-(1-methylpiperidin-4-yl)phenyl)-N4-(5-methyl-1H-pyrazol-3-yl)pyrimidine-2,4-diamine] belongs 104 nM; to `Cc1cc(Nc2nc(Nc3cc(C)c(C4CCN(C5CCS(=O)(=O)CC5)CC4)cc3C)ncc2Cl)n[nH]1` [Compound 146], 258 nM.
As for `CNC(=O)[C@H](C)N1CCC(c2cc(F)c(Nc3ncc(Cl)c(Nc4cc(C)[nH]n4)n3)cc2C)CC1` [Compound 164, (S)-2-(4-(4-(5-chloro-4-(5-methyl-1H-pyrazol-3-ylamino)pyrimidin-2-ylamino)-5-fluoro-2-methylphenyl)piperidin-1-yl)-N-methylpropanamide], the IC50 came out at 33 nM.
Turning to `Cc1cc(Nc2nc(Nc3cc(C)c(C4CCN(C(=O)[C@@H]5C(O)CCN5C)CC4)cc3F)ncc2Cl)n[nH]1` (stereo in doubt) [Compound 139, (4-(4-(5-chloro-4-(5-methyl-1H-pyrazol-3-ylamino)pyrimidin-2-ylamino)-5-fluoro-2-methylphenyl)piperidin-1-yl)((2S,3R)-3-hydroxy-1-methylpyrrolidin-2-yl)methanone], the IC50 was found to be 175 nM.
To `Cc1cc(Nc2nc(Nc3cc(C)c(C4CCN(C(=O)[C@@H]5CC(O)CN5C)CC4)cc3F)ncc2Cl)n[nH]1` (stereo partly drawn) [Compound 128, (4-(4-(5-chloro-4-(5-methyl-1H-pyrazol-3-ylamino)pyrimidin-2-ylamino)-5-fluoro-2-methylphenyl)piperidin-1-yl)((2S)-4-hydroxy-1-methylpyrrolidin-2-yl)methanone] belongs 175 nM; to `Cc1cc(Nc2nc(Nc3cc(Cl)c(C4CCN(CCS(=O)(=O)N5CCC5)CC4)cc3C)ncc2Cl)n[nH]1` [Compound 60, N2-(4-(1-(2-(azetidin-1-ylsulfonyl)ethyl)piperidin-4-yl)-5-chloro-2-methylphenyl)-5-chloro-N4-(5-methyl-1H-pyrazol-3-yl)pyrimidine-2,4-diamine], 11 nM.
Then `Cc1cc(Nc2nc(Nc3cc(C)c(C4CCN(C)CC4)cc3F)ncc2Cl)n[nH]1` [Compound 1, 5-Chloro-N2-(2-fluoro-5-methyl-4-(1-methylpiperidin-4-yl)phenyl)-N4-(5-methyl-1H-pyrazol-3-yl)pyrimidine-2,4-diamine], with 11 nM; and `CNC(C)(C)C(=O)N1CCC(c2cc(C)c(Nc3ncc(Cl)c(Nc4cc(C)[nH]n4)n3)cc2Cl)CC1` [Compound 88, 1-(4-(2-chloro-4-(5-chloro-4-(5-methyl-1H-pyrazol-3-ylamino)pyrimidin-2-ylamino)-5-methylphenyl)piperidin-1-yl)-2-methyl-2-(methylamino)propan-1-one], with 7 nM; and `Cc1cc(Nc2nc(Nc3cc(C)c([C@H]4COC(=O)N4)cc3C)ncc2Cl)n[nH]1` [Compound 230, (S)-4-(4-(5-chloro-4-(5-methyl-1H-pyrazol-3-ylamino)pyrimidin-2-ylamino)-2,5-dimethylphenyl)oxazolidin-2-one], with 40 nM.
For the molecule `Cc1cc(Nc2nc(Nc3cc(C)c(C4CCN([C@@H](C)C(N)=O)CC4)cc3C)ncc2Cl)n[nH]1` [Compound 166, (S)-2-(4-(4-(5-chloro-4-(5-methyl-1H-pyrazol-3-ylamino)pyrimidin-2-ylamino)-2,5-dimethylphenyl)piperidin-1-yl)propanamide], the IC50 was determined as 7 nM.
Then `Cc1cc(Nc2nc(Nc3cc(C)c(C4CCN(CCCS(=O)(=O)N5CCC5)CC4)cc3C)ncc2Cl)n[nH]1` [Compound 214, N^2-(4-(1-(3-(azetidin-1-ylsulfonyl)propyl)piperidin-4-yl)-2,5-dimethylphenyl)-5-chloro-N^4-(5-methyl-1H-pyrazol-3-yl)pyrimidine-2,4-diamine], with 40 nM.
